In patent US4265906A, “Low mammalian toxic and/or low fish toxic insecticides and/or acaricides” (priority 1978, dated 1981):
≈ marks a conversion by molar mass, not a printed value. Where two headings read alike, the source gives them in different places.

Tests used:
[1] = Oral toxicity test (Test Example 10); conditions: in vivo, male mouse, corn oil
Procedure: The present compound (1) was dissolved or suspended in a corn oil, and the resulting solution was orally administered to a male mouse (18 to 22 g) at a rate of 0.2 ml/10 g body weight. After 24 hours, the mortality was examined to obtain the median lethal dose (LD50 mg/kg).

[2] = Fish toxicity of dust, killifishes (Test Example 11); assay type: in vivo; conditions: dechlorinated tap water, dust of Formulation Example 2, Oryzias latipes, read-out: TLm48
Procedure: (§1) The dust of the present compound (1) prepared in Formulation Example 2 was diluted with dechlorinated tap water to a predetermined concentration of active ingredient. Ten liters of the test solution was placed in a 10-liter glass vessel, and 10 killifishes (Oryzias latipes) were liberated therein. After 48 hours, the dead and alive were examined, and TLm48 (ppm) was calculated from the concentration of active ingredient.

[3] = system: full grown larvae of Aedes aegypty (Culex pipiens pallens); experiment: Mosquito larvae test (Test Example 7); assay type: in vivo; conditions: 24 hours, read-out: larvae killed
Procedure: The emulsifiable concentrate of the present compound (1) prepared in Preparation example 1 was diluted with distilled water so that the concentration of active ingredient was 0.1 ppm. One hundred milliliters of the dilute solution was placed in a 180-ml plastic cup, and 30 full grown larvae of Aedes aegypty (Culex pipiens pallens) were liberated therein. After 24 hours, 100% of the larvae could be killed.

[4] = system: WHO strain housefly female adults (Musca domestica); experiment: Topical application to housefly (Test Example 5); assay type: in vivo; conditions: 24 hours
Procedure: The present compound (1) was diluted with acetone to four different concentrations.
The acetone dilute solution was topically applied to the ventral thorax of WHO strain housefly female adults (Musca domestica), at a rate of 0.5 μl/adult by means of a microsyringe.
The adults were then liberated in a plastic cup of 12 cm in diameter and given a 1% sugar water. After 24 hours, the dead and alive were examined. The median lethal does (LD50 μg/adult) was obtained from the mortality of 50 adults per group.

[5] = system: killifishes (Oryzias latipes); experiment: Model paddy field box test, killifishes (Test Example 13); assay type: in vivo; conditions: wettable powder, 100 ppm, 100 liter/10 are, water depth 5 cm, after 48 hours
Procedure: (§2) The wettable powder of the present compound (1) prepared in Formulation Example 3 was diluted with water so that the concentration of active ingredient was 100 ppm. Soil was placed in a plastic box [5m×5m×2m (deep)] to a level of 50 cm from the bottom, and rice plants about 50 cm high were transplanted at intervals of 50 cm. Water was then placed in the bos so that water depth was 5 cm, and 20 killifishes (Oryzias latipes) were liberated therein. Thereafter, the above dilute solution was sprayed on the box at a rate of 100 liter/10 are. The solution fell on the rice plants as well as on the water surface.
(§3) One hour after treatment, 100 female adults of green rice leafhopper (Nephotettix cincticeps) were liberated in the box which was immediately covered with a net.

[6] = Toxicity to carps (Test Example 12); assay type: in vivo; conditions: carp, dechlorinated tap water, read-out: TLm48
Procedure: as §1
Toxicity to carps was tested according to the test method for toxicity to fishes described in Test Example 11, and TLm48 (ppm) values after 48 hours were obtained.

[7] = system: third instar larvae of rice stem borer (Chilo suppressalis); experiment: Rice seedling dipping test, rice stem borer (Test Example 6); assay type: in vivo; conditions: 240 h, 10 days, read-out: larvae killed
Procedure: The emulsifiable concentrate of the present compound (1) prepared in Formulation Example 1 was diluted with water so that the concentration of active ingredient was 500 ppm. Five rice seedlings which had elapsed 10 days after sowing were dipped in the dilute solution and air-dried. The rice seedlings and 10 third instar larvae of rice stem borer (Chilo suppressalis) were placed in a plastic cup (diameter 5.5 cm, height 3.5 cm) which was then placed in an artificial climate chamber kept at 26° C.

[8] = Fish toxicity test, median tolerance limit 48 hours (Test Example 1); assay type: in vivo, Oryzias latipes (killifish); conditions: in vivo; Oryzias latipes, 48 hours; read-out: Fish toxicity TLm48 (a)
Procedure: (§4) Ten member group of Oryzias latipes (0.2-0.3 g/fish) was released in a 10-liter glass vessel containing 10 liters of a test preparation which was dissolved or suspended in "Tween 80" and diluted successively with dechlorinated tap water. After 48 hours, the dead and alive were counted to determine median tolerance limit (48 hours) [TLm48 (ppm)] value.

[9] = system: Oryzias latipes; experiment: as above; assay type: in vivo, Oryzias latipes (killifish); conditions: killifish, in words
Procedure: as §4

[10] = system: Oryzias latipes / Nephotettix cincticeps; experiment: Fish safety coefficient calculated from fish toxicity and insecticidal activity (Test Example 1); conditions: for Safety coefficient to fishes (a)/(b): TLm48 (Oryzias latipes) divided by concentration in water at LC50 for N. cincticeps
Procedure: In order to make more clear the low fish toxicity and the high activity to target insects, which are charcteristic of the compounds of this invention, a fish safety coefficient was calculated from the test results of fish toxicity and insecticidal activity by the following equation and shown in Table 2. [formula]
In the case of N. cincticeps, calculation was based on a hyothetical concentration of the test compound in water obtained by assuming that a test preparation of the active ingredient content corresponding to LC50 (ppm) was sprayed over a submerged paddy field, 5 cm in depth of water, at a rate of 100 liters per 10 ares and total active ingredient was absorbed by the water.
For example, in the case of compound (1) of this invention, the quantity of water per 10 ares of the submerged paddy field, 5 cm in depth of water, is 50 tons. If a preparation of the active ingredient content equivalent to LC50 (ppm) of the compound (1) is sprayed at a rate of 100 liters per 10 ares, the concentration of the compound (1) in the water is 0.007 ppm. The fish toxicity [TLm48 ] of the compound (1) is 6.0 ppm. The fish safety coefficient (857.1) is obtained by dividing 6.0 by 0.007.

[11] = system: Laodelphax striatellus; experiment: Insecticidal activity, Laodelphax striatellus (Test Example 4); assay type: in vivo; conditions: Laodelphax striatellus female adults, 24 hours, 26° C.
Procedure: The emulsion preparation containing the compound (1) of this invention, described in Formulation Example 1, was diluted with water. The active ingredient content of the test prepartion was varied in 4 levels within the range of 150 to 10 ppm. The test preparation was sprayed over 180 ml plastic cups grown with rice plant and placed on a turn table the application rate having been 15 cc/2 cups. After air drying, the plant was covered with a wire-screen cage. A group of 15 female adults of Laodelphax striatellus was released in each cage and kept at 26° C. in an artificial climate condition. After 24 hours, the dead and alive were observed. The median lethal concentration [LC50 (ppm)] was calculated from the mortality determined by 3-repetition test.

[12] = system: green rice leafhopper (Nephotettix cincticeps); experiment: Model paddy field box test, green rice leafhopper (Test Example 13); assay type: in vivo; conditions: wettable powder, 100 ppm, 100 liter/10 are, after 48 hours
Procedure: as §2, §3

[13] = system: carmine mites (Tetranychus cinnabarinus); experiment: Acaricidal test on rice plants, carmine mites (Test Example 8); assay type: in vivo; conditions: 500 ppm, after 10 days
Procedure: The emulsifiable concentrate of the present compound (1) prepared in Formulation Example 1 was diluted with water so that the concentration of active ingredient was 500 ppm. The dilute solution was then thoroughly sprayed on rice plants (grown in a 1/10,000 are Wagner's pot) on which carmine mites (Tetranychus cinnabarinus) in all stages were made parasitic.

[14] = system: R-type Nephotettix cincticeps; experiment: Insecticidal activity test, activity to Nephotettix cincticeps (Test Example 1); assay type: in vivo
Procedure: 2. Insecticidal activity test.
Test emulsion preparations were prepared in the same manner as in Formulation Example 1.
Activity to Nephotettix cinciticips
The test insect was resistant to carbamates (hereinafter referred to as R-type). The active ingredient content of test preparation was varied in 4 levels within the range of 500 to 1 ppm. The test preparation was sprayed over 180-ml plastic cups grown with rice plant one-month old from sowing and placed on a turn table, the application rate having been 15 cc/2 cups. After air drying, the plant was covered with a wire-screen cage. A group of 15 female adults of R-type Nephotettix cincticeps was released in each cage and kept at 26° C. in an artificial climate condition. After 24 hours, the dead and alive were observed. The median lethal concentration [LC50 (ppm)] was calculated from the mortality determined by 3-repetition test.

[15] = system: green rice leafhopper (Nephotettix cincticeps); experiment: Residual effect test (Test Example 9); assay type: in vivo; conditions: 400 ppm, 24 hours
Procedure: The emulsifiable concentrate of the present compound (1) prepared in Formulation Example 1 was diluted with water so that the concentration of active ingredient was 400 ppm. Thereafter, 20 cc of the dilute solution was sprayed on rice plants grown in a 1/10,000 are Wagner's pot. The rice plants were air-dried and covered with a wire-screen cage, and 15 female adults of green rice leafhopper (Nephotettix cincticeps) were liberated therein. After 24 hours, the dead and alive were examined to obtain mortality. In order to examine the residual effect, the pot was then left as it was for 7 days, and the test insects were liberated in the same manner as above. After 24 hours, the mortality was examined. The experiment was carried out in a greenhouse and the number of repetitions was three.

[16] = system: R-type Nephotettix cincticeps; experiment: Mortality by isomer mixtures on rice plant (Test Example 2); assay type: in vivo; conditions: 10 ppm active ingredient, 24 hours
Description: The present compound (1) and (2) were mixed in a predetermined proportion, formulated into an emulsifiable concentrate according to Formulation Example 1 and diluted with water so that the amount of active ingredient was 10 ppm.
The test preparation was sprayed over rice plant in tillering stage planted in a 1/10,000 are Wagner pot, at a rate of 15 cc per pot. After airdrying, the plant was covered with a wire-screen cage into which were released 15 female adults of R-type Nephotettix cincticeps. The pot was kept at 26° C. in an artificial climate condition. After 24 hours, the dead and alive were observed and the mortality was obtained by 3-repetition test.

[17] = R-type (carbamate-resistant) Nephotettix cincticeps female adults, 24 hours, 26° C., read-out: LC50

| Compound | LD50 at 24 h [1] | LC50 at 48 h [8] | Safety coefficient to fishes (a)/(b) [10] | LC50 [14, 17] | other results |
| --- | --- | --- | --- | --- | --- |
| CC1(C)[C@H](C=C(Cl)Cl)[C@H]1C(=O)OC(C#N)c1cccc(Oc2ccc(Br)cc2)c1 (relative stereo) [Compound (1), m-(p-bromophenoxy)-α-cyanobenzyl dl-trans-2,2-dimethyl-3-(2,2-dichlorovinyl)cyclopropanecarboxylate] | > 2000 mg/kg | 6 µg/mL (≈ 12.1 µM) | 857.1 | 3.5 µg/mL (≈ 7.07 µM) | LC50 at 48 h [2]: > 10 µg/mL; mortality at 0.1 ppm [3]: 100%; LD50 [4]: 0.035 μg/adult; survival of killifishes [5]: all of the killifishes were alive; LC50 at 48 h [6]: > 10 µg/mL; mortality at 500 ppm [7]: 100%; toxicity to killifish compared with reference compounds [9]: lower in toxicity to killifish than the reference compounds (A), (C), (D) and (E); safety coefficient to fishes compared with reference compounds ([10]; in words): shows a very high value as compared with that of the reference compounds; LC50 [11]: 70 µg/mL (≈ 141 µM); green rice leafhoppers found [12]: no green rice leafhoppers were found; degree of damage by the carmine mites [13]: the spreading of damage could be prevented; insecticidal activity compared with reference compounds ([14]; Nephotettix cincticeps, in words): higher in insecticidal activity than the reference compounds (A), (C) and (F); Mortality (%), effect immediately after treatment [15]: 100%; Mortality (%), effect 7 days after treatment ([15]; insects liberated 7 days after treatment): 100% |
| CC1(C)C(C=C(Cl)Cl)C1C(=O)OC(C#N)c1cccc(Oc2ccccc2)c1 (racemic) [Reference compound (D), m-phenoxy-α-cyanobenzyl dl-cis,trans-2,2-dimethyl-3-(2,2-dichlorovinyl)-cyclopropanecarboxylate] | 112 mg/kg | 0.026 µg/mL (≈ 0.0625 µM) | 2.6 | 5 µg/mL (≈ 12 µM) | LC50 at 48 h [6]: ≤ 0.01 µg/mL |
| CC1(C)C(C=C(Cl)Cl)C1C(=O)OC(C#N)c1cccc(Oc2ccc(F)cc2)c1 (racemic) [(E), m-(p-fluorophenoxy)-α-cyanobenzyl dl-cis,trans-2,2-dimethyl-3-(2,2-dichlorovinyl)cyclopropanecarboxylate] | 300 mg/kg | 0.003 µg/mL (≈ 0.00691 µM) | 0.3 | 5 µg/mL (≈ 11.5 µM) | – |
| CC(C)=CC1C(C(=O)OCc2cccc(Oc3ccccc3)c2)C1(C)C (racemic) [(B), m-phenoxybenzyl dl-cis,trans chrysanthemate] | – | – | – | – | mortality at 10 ppm [16]: 10% |
| CC1(C)C(C=C(Cl)Cl)C1C(=O)OCc1cccc(Oc2ccccc2)c1 (racemic) [(C), m-phenoxybenzyl dl-cis,trans-2,2-dimethyl-3-(2,2-dichlorovinyl)cyclopropanecarboxylate] | 650 mg/kg | 0.027 µg/mL (≈ 0.069 µM) | 0.8 | 18 µg/mL (≈ 46 µM) | – |
| CNC(=O)Oc1ccc(C)c(C)c1 [(F)] | 60 mg/kg | 11.9 µg/mL (≈ 66.4 µM) | 17.0 | – | LC50 ([14]; Nephotettix cincticeps, 24 h): 350 µg/mL (≈ 1950 µM) |
| CC1(C)C(C=C(Cl)Cl)C1C(=O)OC(C#N)c1cccc(Oc2ccc(Br)cc2)c1 (racemic) [(A), m-(p-bromophenoxy)-α-cyanobenzyl dl-cis, trans-2,2-dimethyl-3-(2,2-dichlorovinyl)cyclopropanecarboxylate] | – | 0.9 µg/mL (≈ 1.82 µM) | 56.3 | 8 µg/mL (≈ 16.2 µM) | – |
